# Data published in US12721828B2, “Pharmaceutical liquid composition, kit of parts comprising the pharmaceutical liquid composition, and method for preparing the pharmaceutical liquid composition” (MPERIUM B.V., priority 2019, dated 2026).
# Read-outs that look alike come from different tables or passages of the source.
# Assays:
# [1] = 350 mg/ml, 6 hours, room temperature, Watson-Marlow 505-S pump, tube diameter 0.2 mm, rpm 50
# Procedure: A 6 hour test has been performed wherein a SPB oplossing (350 mg/ml) was circulated at room temperature by a Watson-Marlow 505-S pump, tube diameter 0.2 mm, rpm 50. The pump settings correspond to an almost dropwise output. The speed was controlled to be low to simulate a worst case situation to signal blocking of the tube and/or crystallization of the SPB solution in the tube.
# [2] = 1.88 mmol/ml (350 mg/mL SPB) in an aqueous solution
# [3] = not given; remark: listed apart in the source
substance,measurement,setting,value
Sodium Phenylbutyrate [SPB],blockage of the tube and crystallization of the SPB solution in the tube,[1],did not occur
same,pH of aqueous solution,[2],> 8
same,dissolving in purified water,500 mg/ml,required to pre-heat (40° C.) the purified water to dissolve the SPB completely
same,behaviour during the dissolving process in purified water,SPB concentrations higher than 350 mg/ml,significant lumping
same,crystallization on storage,"[3]; 450 mg/ml, 400 mg/ml and 350 mg/ml solutions, 2 weeks at 25° C., 40° C. and 5° C.",Only the SPB 500 mg/ml showed crystallization
same,crystallization on storage,"[3]; 500 mg/ml solution, clear glass bottles, 40° C.",crystallization after 1 week
